The values that follow come from article PMC3433420 (PLoS ONE, 2012).

Where two headings read alike, the source gives them in different places. Non-standard residues stand in square brackets, D forms with d. No end group written: not given here. pY = N[C@@H](Cc1ccc(OP(=O)(O)O)cc1)C(=O)O

The test system of experiment [1] is SH2 and PTB domains. Kind of experiment: Sum of relative binding free energies (ΔΔG) from FP KDs, relative to 20 µM threshold. Also on record: species or system human; unit not given here. Here is the method:
In order to further define and classify commonalities and differences among the ErbB family, the relative binding free energy (FE) of each SH2 domain was summed across all phosphosites on each receptor relative to the assay detection threshold of 20 µM according to Equation (3): [drawing 10] (3)

For experiment [2], the target named is SH2 and PTB domains. Conditions: cited from earlier work. An excerpt:
Supplement pone.0044471.s022.xlsx, sheet "Most recent PM interactions" | column: Kd || Supplement pone.0044471.s022.xlsx, sheet "All original PM interactions" | column: Kd

Turning to ERBB3 (SEQG[pY]EEMRAFQD), the GO_SumDDG in the experiment with SH2 and PTB domains [1] (GO group Adaptors) was determined as 1.375; with SH2 and PTB domains [1] (GO group Chromatin Remodeling), 0; in the experiment on SH2 and PTB domains [1] (GO group Cytoskeletal Regulation) it was 3.549; in the experiment with SH2 and PTB domains [1] (GO group Kinases) it was 3.776; with SH2 and PTB domains [1] (GO group Phosphatases) it was 2.349; with SH2 and PTB domains [1] (GO group Phosphatidyl Inositol Kinases), 12.5484. Further, the GO_SumDDG is reported as 1.508 in the experiment with SH2 and PTB domains [1] (GO group Phosphatidyl Inositol Phosphatases); 8.299 in the experiment with SH2 and PTB domains [1] (GO group Phospholipases); 3.469 in the experiment with SH2 and PTB domains [1] (GO group RAS GEFs); 10.8637 with SH2 and PTB domains [1] (GO group RAS GTPases); 4.394 in the experiment with SH2 and PTB domains [1] (GO group RHO GEFs); 3.618 with SH2 and PTB domains [1] (GO group Scaffolds). For the same substance, in the experiment on SH2 and PTB domains [1] (GO group Signal Regulation), the GO_SumDDG turned out to be 2.5932.
In general, Kd refers to the concentration at which binding is half-saturated. For “RDPHpYQDPHSTAd [ErbB1 pY1125, N-terminally rhodamine-labeled 13-mer phosphopeptide]”, the equilibrium dissociation constant (Kd) on SH2 and PTB domains [2] (protein ABL2, ref Jones et al. 2006 / Kaushansky et al. Mol Biosys 2008 / Kaushansky et al. Chem and Biol 2008) was 130 nM; on SH2 and PTB domains [2] (protein BMX, ref Jones et al. 2006 / Kaushansky et al. Mol Biosys 2008 / Kaushansky et al. Chem and Biol 2008), 1070 nM; on SH2 and PTB domains [2] (protein CRK, ref Jones et al. 2006 / Kaushansky et al. Mol Biosys 2008 / Kaushansky et al. Chem and Biol 2008), 1230 nM; at SH2 and PTB domains [2] (protein CRKL, ref Jones et al. 2006 / Kaushansky et al. Mol Biosys 2008 / Kaushansky et al. Chem and Biol 2008), 2000 nM; at SH2 and PTB domains [2] (protein RASA1-N, ref Jones et al. 2006 / Kaushansky et al. Mol Biosys 2008 / Kaushansky et al. Chem and Biol 2008), 1320 nM; on SH2 and PTB domains [2] (protein SHB, ref Jones et al. 2006 / Kaushansky et al. Mol Biosys 2008 / Kaushansky et al. Chem and Biol 2008), 990 nM. Also, the dissociation constant (Kd) on SH2 and PTB domains [2] (protein SYK-NC, ref Jones et al. 2006 / Kaushansky et al. Mol Biosys 2008 / Kaushansky et al. Chem and Biol 2008) is 980 nM; at SH2 and PTB domains [2] (protein TNS1, ref Jones et al. 2006 / Kaushansky et al. Mol Biosys 2008 / Kaushansky et al. Chem and Biol 2008), 1280 nM; at SH2 and PTB domains [2] (protein YES1, ref Jones et al. 2006 / Kaushansky et al. Mol Biosys 2008 / Kaushansky et al. Chem and Biol 2008), 380 nM.
Consider “STQRpYSADPTVFd [ErbB4 pY1128, N-terminally rhodamine-labeled 13-mer phosphopeptide]”, for which the equilibrium dissociation constant (Kd) at SH2 and PTB domains [2] (protein SRC, ref Kaushansky et al. Chem and Biol 2008) is 500 nM.
As for THDPSPLQRpYSEDPTVPd [ErbB2 1112], the equilibrium dissociation constant (Kd) on SH2 and PTB domains [2] (Protein BLK, most recent PM interactions, ref Kaushansky et al. Chem and Biol 2008) is 760 nM; on SH2 and PTB domains [2] (Protein PLCG2-NC, most recent PM interactions, ref Kaushansky et al. Chem and Biol 2008) it was 1060 nM.
For the substance “VSVPpYRAPTSTI [ErbB4 pY1081, N-terminally rhodamine-labeled 13-mer phosphopeptide]”, the equilibrium dissociation constant (Kd) on SH2 and PTB domains [2] (protein ABL2, ref Kaushansky et al. Chem and Biol 2008) was 1230 nM; on SH2 and PTB domains [2] (protein CRKL, ref Kaushansky et al. Chem and Biol 2008), 1240 nM.
